Laboratory results as given in ChEMBL document CHEMBL1201862, “PubChem BioAssay data set” (2004).
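Method: 48-hour compound exposure of cells in 96-well plates, five concentrations, linear interpolation of endpoints. The concentration for 50% growth inhibition is given as GI50.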 The source made the active and inactive calls. No stated cut-off is given here; in the data, active = GI50 up to about 1.1 µM and inactive = higher.

Tests used:
Experiment in all cases: inhibition of tumour cell growth, NCI panel, 48 h
[1] = tested on: SK-MEL-2
[2] = tested on: TK-10
[3] = tested on: OVCAR-5
[4] = tested on: NCI-H226
[5] = tested on: BT-549
[6] = tested on: HT-29
[7] = tested on: SK-MEL-5
[8] = tested on: UACC-257
[9] = tested on: T47D
[10] = tested on: A498
[11] = tested on: HOP-92
[12] = tested on: SNB-19
[13] = tested on: OVCAR-3
[14] = tested on: UACC-62
[15] = tested on: OVCAR-8
[16] = tested on: MDA-MB-435
[17] = tested on: Hs-578T
[18] = tested on: SF-539
[19] = tested on: UO-31
[20] = tested on: HL-60
[21] = tested on: EKVX
[22] = tested on: NCI/ADR-RES
[23] = tested on: COLO 205
[24] = tested on: 786-0
[25] = tested on: ACHN
[26] = tested on: SK-OV-3
[27] = tested on: MDA-N
[28] = tested on: OVCAR-4
[29] = tested on: IGROV-1
[30] = tested on: MCF7
[31] = tested on: NCI-H522
[32] = tested on: NCI-H23
[33] = tested on: SF-268
[34] = tested on: DU-145
[35] = tested on: RXF 393
[36] = tested on: CAKI-1
[37] = tested on: K562
[38] = tested on: A549
[39] = tested on: MDA-MB-231
[40] = tested on: KM12
[41] = tested on: SF-295
[42] = tested on: CCRF-CEM
[43] = tested on: HCC 2998
[44] = tested on: SNB-75
[45] = tested on: NCI-H460
[46] = tested on: LOX IMVI
[47] = tested on: HCT-116
[48] = tested on: PC-3
[49] = tested on: SN12C
[50] = tested on: MOLT-4
[51] = tested on: HCT-15
[52] = tested on: U-251
[53] = tested on: SR
[54] = tested on: SW-620
[55] = tested on: M14
[56] = tested on: RPMI-8226
[57] = tested on: HOP-62
[58] = tested on: Malme-3M
[59] = tested on: SK-MEL-28

COc1cc(C2OC[C@@H]3C(=O)OC[C@H]23)cc(O)c1OC (stereo partly drawn)
GI50 [1]: > 100 µM (inactive)
GI50 [2]: > 100 µM (inactive)
GI50 [3]: > 100 µM (inactive)
GI50 [4]: > 100 µM (inactive)
GI50 [5]: > 100 µM (inactive)
GI50 [6]: > 100 µM (inactive)
GI50 [7]: > 100 µM (inactive)
GI50 [8]: > 100 µM (inactive)
GI50 [9]: > 100 µM (inactive)
GI50 [10]: > 100 µM (inactive)
GI50 [11]: > 100 µM (inactive)
GI50 [12]: > 100 µM (inactive)
GI50 [13]: > 100 µM (inactive)
GI50 [14]: > 100 µM (inactive)
GI50 [15]: > 100 µM (inactive)
GI50 [16]: > 100 µM (inactive)
GI50 [17]: > 100 µM (inactive)
GI50 [18]: > 100 µM (inactive)
GI50 [19]: > 100 µM (inactive)
GI50 [20]: > 100 µM (inactive)
GI50 [21]: > 100 µM (inactive)
GI50 [22]: > 100 µM (inactive)
GI50 [23]: > 100 µM (inactive)
GI50 [24]: > 100 µM (inactive)
GI50 [25]: > 100 µM (inactive)
GI50 [26]: > 100 µM (inactive)
GI50 [27]: > 100 µM (inactive)
GI50 [28]: > 100 µM (inactive)
GI50 [29]: > 100 µM (inactive)
GI50 [30]: > 100 µM (inactive)
GI50 [31]: > 100 µM (inactive)
GI50 [32]: > 100 µM (inactive)
GI50 [33]: > 100 µM (inactive)
GI50 [34]: > 100 µM (inactive)
GI50 [35]: > 100 µM (inactive)
GI50 [36]: > 100 µM (inactive)
GI50 [37]: > 100 µM (inactive)
GI50 [38]: > 100 µM (inactive)
GI50 [39]: > 100 µM (inactive)
GI50 [40]: > 100 µM (inactive)
GI50 [41]: > 100 µM (inactive)
GI50 [42]: > 100 µM (inactive)
GI50 [43]: > 100 µM (inactive)
GI50 [44]: > 100 µM (inactive)
GI50 [45]: > 100 µM (inactive)
GI50 [46]: > 100 µM (inactive)
GI50 [47]: > 100 µM (inactive)
GI50 [48]: > 100 µM (inactive)
GI50 [49]: > 100 µM (inactive)
GI50 [50]: > 100 µM (inactive)
GI50 [51]: > 100 µM
GI50 [52]: > 100 µM (inactive)
GI50 [53]: > 100 µM (inactive)
GI50 [54]: > 100 µM (inactive)
GI50 [55]: > 100 µM (inactive)
GI50 [56]: > 100 µM (inactive)

CCOC(=O)c1ccc(Nc2nc3ccc(C(F)(F)F)cc3nc2C(=O)OCC)cc1
GI50 [2]: > 100 µM (inactive)
GI50 [3]: > 100 µM (inactive)
GI50 [4]: > 100 µM (inactive)
GI50 [5]: > 100 µM (inactive)
GI50 [6]: > 100 µM (inactive)
GI50 [7]: > 100 µM (inactive)
GI50 [8]: > 100 µM (inactive)
GI50 [9]: > 100 µM (inactive)
GI50 [10]: > 100 µM (inactive)
GI50 [11]: > 100 µM (inactive)
GI50 [12]: > 100 µM (inactive)
GI50 [13]: > 100 µM (inactive)
GI50 [14]: > 100 µM (inactive)
GI50 [15]: > 100 µM (inactive)
GI50 [16]: > 100 µM (inactive)
GI50 [57]: 49.2 µM (inactive)
GI50 [17]: 32.9 µM (inactive)
GI50 [18]: > 100 µM (inactive)
GI50 [58]: > 100 µM (inactive)
GI50 [19]: > 100 µM (inactive)
GI50 [20]: > 100 µM (inactive)
GI50 [21]: > 100 µM (inactive)
GI50 [22]: > 100 µM (inactive)
GI50 [23]: > 100 µM (inactive)
GI50 [24]: > 100 µM (inactive)
GI50 [25]: > 100 µM (inactive)
GI50 [26]: > 100 µM (inactive)
GI50 [59]: > 100 µM (inactive)
GI50 [27]: > 100 µM (inactive)
GI50 [29]: > 100 µM (inactive)
GI50 [30]: > 100 µM (inactive)
GI50 [31]: > 100 µM (inactive)
GI50 [32]: > 100 µM (inactive)
GI50 [33]: > 100 µM (inactive)
GI50 [34]: > 100 µM (inactive)
GI50 [35]: > 100 µM (inactive)
GI50 [36]: 81.3 µM (inactive)
GI50 [37]: > 100 µM (inactive)
GI50 [38]: > 100 µM (inactive)
GI50 [39]: > 100 µM (inactive)
GI50 [40]: > 100 µM (inactive)
GI50 [41]: > 100 µM (inactive)
GI50 [42]: > 100 µM (inactive)
GI50 [43]: > 100 µM (inactive)
GI50 [44]: 95.3 µM (inactive)
GI50 [45]: > 100 µM (inactive)
GI50 [46]: > 100 µM (inactive)
GI50 [47]: > 100 µM (inactive)
GI50 [48]: > 100 µM (inactive)
GI50 [49]: > 100 µM (inactive)
GI50 [50]: > 100 µM (inactive)
GI50 [51]: > 100 µM
GI50 [52]: > 100 µM (inactive)
GI50 [53]: > 100 µM (inactive)
GI50 [54]: > 100 µM (inactive)
GI50 [55]: > 100 µM (inactive)
GI50 [56]: > 100 µM (inactive)
